Legend:
[1] = system: ANGPTL4, a PPARG target gene, in HT1197 (RXRA S427F mutation) cells; test: Bladder cancer pharmacodynamic assay, HT1197 cell assay (qPCR of ANGPTL4); assay type: cell-based; conditions: Homo sapiens, 24 hours, 100 nM compound, relative to DMSO control
Protocol: Bladder Cancer Pharmacodynamic Assay
5637 (PPARG amplified) and HT1197 (RXRA S427F mutation) cells were used for assessment of modulation of PPARG target genes using quantitative PCR. Cells were treated for 24 hours with PPARG inverse agonists prior to analysis of FABP4 (IDT, Cat: Hs.PT 58.20106818) and ANGPTL4 (IDT, Cat: Hs.PT 58.25480012) expression, with expression of the housekeeping gene TBP (IDT, Cat: Hs.PT 58v.39858774) used to normalize expression across samples. Quantitative PCR was performed using an ABI QuantStudio 7 Flex Reaction system. Data were analyzed and reported relative to DMSO control using the comparative Ct method (ΔΔCt).

[2] = molecular target: T1, PPARG/RXRA LBD heterodimer (Homo sapiens, UniProt P37231); test: PPARγ-NCOR1 recruitment assay (TR-FRET, biotinylated NCOR1 ID2 peptide); assay type: biochemical; conditions: 80 nM Rosiglitazone, 3 hours, read-out: PPARG-NCOR recruitment assay EC50
T1 construct: His-TEV-Q203-Y477; Uniprot ID P37231-2; made in house; host or cells: E. coli
Protocol: PPARγ-NCOR1 Recruitment Assay:
Compound potency (EC50) and maximal extent of NCOR1 recruitment to PPARG were assessed a TR-FRET binding assay measuring association of a biotinylated NCOR1 ID2 peptide (Biotin-[…]-amide) to PPARG/RXRA LBD heterodimer. Specifically, a 20 microliters of TR-FRET master mix consisting of 2 nM WT PPARG LBD (E. coli expressed, His-TEV-Q203-Y477; Uniprot ID P37231-2), 2 nM WT RXRA LBD or mutant S427F RXRA LBD (E. coli expressed, Flag-TEV-E228-T462; […]. Mixtures were incubated for 3 hours and read in an EnVision plate reader (Perkin Elmer) with Ex/Em 615/665. To determine the potency (EC50) and extent of NCOR1 recruitment, TR-FRET ratios were normalized to the average ratio of DMSO control wells (0%) and to the average maximum ratio for positive control compound (T0070907 (2-chloro-5-nitro-N-4-pyridinyl-benzamide); defined as 100%) in CDD Vault and analyzed using the Levenberg-Marquardt algorithm.
T1 sequence (O75376 2251-2273 partner, one chain of several): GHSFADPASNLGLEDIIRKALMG

[3] = molecular target: T2, PPARG/RXRA LBD heterodimer (Homo sapiens, UniProt P37231); test: PPARγ-MED1 blockade assay (TR-FRET, biotinylated MED1 LxxLL peptide); assay type: biochemical; conditions: WT PPARG LBD/WT RXRA LBD, 80 nM Rosiglitazone, 3 hours
T2 construct: His-TEV-Q203-Y477; Uniprot ID P37231-2; made in house; host or cells: E. coli
T2 sequence (P37231 203-477 isoform P37231-2): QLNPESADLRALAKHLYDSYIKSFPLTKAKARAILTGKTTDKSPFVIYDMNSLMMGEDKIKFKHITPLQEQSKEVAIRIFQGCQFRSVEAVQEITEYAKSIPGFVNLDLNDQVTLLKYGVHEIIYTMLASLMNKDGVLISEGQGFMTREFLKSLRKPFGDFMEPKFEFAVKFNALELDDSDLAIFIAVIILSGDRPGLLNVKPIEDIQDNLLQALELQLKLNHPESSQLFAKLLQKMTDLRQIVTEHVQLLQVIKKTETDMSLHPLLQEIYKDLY
T2 sequence (P19793 228-462 partner limits assumed): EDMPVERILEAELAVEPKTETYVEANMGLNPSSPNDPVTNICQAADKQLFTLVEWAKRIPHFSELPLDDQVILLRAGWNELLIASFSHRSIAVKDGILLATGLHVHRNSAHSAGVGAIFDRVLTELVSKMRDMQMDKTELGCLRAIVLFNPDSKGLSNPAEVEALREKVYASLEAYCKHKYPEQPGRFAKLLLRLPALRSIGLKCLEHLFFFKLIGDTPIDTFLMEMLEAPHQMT
Protocol: PPARγ-MED1 Blockade Assay:
Compound potency (IC50) and maximal extent of MED1 repulsion to PPARG were assessed a TR-FRET binding assay measuring association of a biotinylated MED1 LxxLL peptide (Biotin-[…]-amide) to PPARG/RXRA LBD heterodimer. Specifically, a 20 microliters of TR-FRET master mix consisting of 2 nM WT PPARG LBD (E. coli expressed, His-TEV-Q203-Y477; Uniprot ID P37231-2), 2 nM WT RXRA LBD (E. coli expressed, Flag-TEV-E228-T462; […]. Mixtures were incubated for 3 hours and read in an EnVision plate reader (Perkin Elmer) with Ex/Em 615/665. To determine the potency (IC50) and extent of MED1 repulsion, TR-FRET ratios were normalized to the average ratio of DMSO control wells (0%) and to the average minimum ratio for positive control compound (GW9662 (2-chloro-5-nitrobenzanilide); defined as 100%) in CDD Vault and analyzed using the Levenberg-Marquardt algorithm.

| SMILES | inhibition at 0.1 µM [1] [%] | EC50 [2] [nM] | EC50 [3] [nM] |
| --- | --- | --- | --- |
| Cc1c(F)cc(F)c2c(=O)cc(-c3cc(C#N)ccc3Cl)[nH]c12 [Example 28, 4-chloro-3-(5,7-difluoro-8-methyl-4-oxo-1,4-dihydroquinolin-2-yl)benzonitrile] | 0 | > 10000 | 100 to 1000 |
| N#Cc1ccc(Cl)c(-c2cc(=O)c3c(F)c(-n4ccnc4)c(F)cc3[nH]2)c1 [Example 29, 4-chloro-3-(5,7-difluoro-6-(1H-imidazol-1-yl)-4-oxo-1,4-dihydroquinolin-2-yl)benzonitrile] | 38 | 1000 to 10000 | 1000 to 10000 |
| Cc1cn(-c2c(F)cc3[nH]c(-c4cc(C#N)ccc4Cl)cc(=O)c3c2F)cn1 [Example 30, 4-chloro-3-(5,7-difluoro-6-(4-methyl-1H-imidazol-1-yl)-4-oxo-1,4-dihydroquinolin-2-yl)benzonitrile] | 39 | 100 to 1000 | 100 to 1000 |
| N#Cc1ccc(Cl)c(-c2cc(=O)c3ccc(Cl)cc3[nH]2)c1 [Example 31, 4-chloro-3-(7-chloro-4-oxo-1,4-dihydroquinolin-2-yl)benzonitrile] | 90 | 100 to 1000 | 100 to 1000 |
| N#Cc1ccc(Cl)c(-c2cc(=O)c3c(F)c(C(F)(F)F)c(F)cc3[nH]2)c1 [Example 32, 4-chloro-3-(5,7-difluoro-4-oxo-6-(trifluoromethyl)-1,4-dihydroquinolin-2-yl)benzonitrile] | 31 | 100 to 1000 | 100 to 1000 |
| COc1c(F)cc2[nH]c(-c3cc(C#N)ccc3Cl)cc(=O)c2c1F [Example 34, 4-chloro-3-(5,7-difluoro-6-methoxy-4-oxo-1,4-dihydroquinolin-2-yl)benzonitrile] | 79 | 100 to 1000 | 100 to 1000 |
| N#Cc1ccc(-c2c(F)cc3[nH]c(-c4cc(C#N)ccc4Cl)cc(=O)c3c2F)cc1 [Example 35, 4-chloro-3-(6-(4-cyanophenyl)-5,7-difluoro-4-oxo-1,4-dihydroquinolin-2-yl)benzonitrile] | 54 | 100 to 1000 | 100 to 1000 |
| N#Cc1ccc(Cl)c(-c2cc(=O)c3c(F)c(-c4ccc(C(F)F)cc4)c(F)cc3[nH]2)c1 [Example 36, 4-chloro-3-(6-(4-(difluoromethyl)phenyl)-5,7-difluoro-4-oxo-1,4-dihydroquinolin-2-yl)benzonitrile] | 65 | 10 to 100 | 10 to 100 |
| N#Cc1ccc(Cl)c(-c2cc(=O)c3c(F)c(-c4ccc(C(F)(F)F)nc4)c(F)cc3[nH]2)c1 [Example 37, 4-chloro-3-(5,7-difluoro-4-oxo-6-(6-(trifluoromethyl)pyridin-3-yl)-1,4-dihydroquinolin-2-yl)benzonitrile] | 87 | 100 to 1000 | 100 to 1000 |
| N#Cc1ccc(Cl)c(-c2cc(=O)c3c(F)c(-c4cnn(C(F)F)c4)c(F)cc3[nH]2)c1 [Example 38, 4-chloro-3-(6-(1-(difluoromethyl)-1H-pyrazol-4-yl)-5,7-difluoro-4-oxo-1,4-dihydroquinolin-2-yl)benzonitrile] | 80 | 100 to 1000 | 100 to 1000 |
| CS(=O)(=O)c1ccc(-c2c(F)cc3[nH]c(-c4cc(C#N)ccc4Cl)cc(=O)c3c2F)cc1 [Example 39, 4-chloro-3-(5,7-difluoro-6-(4-(methylsulfonyl)phenyl)-4-oxo-1,4-dihydroquinolin-2-yl)benzonitrile] | 33 | 100 to 1000 | 100 to 1000 |
| Cc1cc(-c2c(F)cc3[nH]c(-c4cc(C#N)ccc4Cl)cc(=O)c3c2F)ccn1 [Example 40, 4-chloro-3-(5,7-difluoro-6-(2-methylpyridin-4-yl)-4-oxo-1,4-dihydroquinolin-2-yl)benzonitrile] | 72 | 100 to 1000 | 100 to 1000 |
| N#Cc1cccc(-c2c(F)cc3[nH]c(-c4cc(C#N)ccc4Cl)cc(=O)c3c2F)c1 [Example 41, 4-chloro-3-(6-(3-cyanophenyl)-5,7-difluoro-4-oxo-1,4-dihydroquinolin-2-yl)benzonitrile] | 72 | 10 to 100 | 100 to 1000 |
| Cc1ncc(-c2c(F)cc3[nH]c(-c4cc(C#N)ccc4Cl)cc(=O)c3c2F)cn1 [Example 42, 4-chloro-3-(5,7-difluoro-6-(2-methylpyrimidin-5-yl)-4-oxo-1,4-dihydroquinolin-2-yl)benzonitrile] | 74 | 100 to 1000 | 100 to 1000 |
| Cc1cc(-c2c(F)cc3[nH]c(-c4cc(C#N)ccc4Cl)cc(=O)c3c2F)cc(C)n1 [Example 43, 4-chloro-3-(6-(2,6-dimethylpyridin-4-yl)-5,7-difluoro-4-oxo-1,4-dihydroquinolin-2-yl)benzonitrile] | 75 | 100 to 1000 | 100 to 1000 |
| Cn1cc(-c2c(F)cc3[nH]c(-c4cc(C#N)ccc4Cl)cc(=O)c3c2F)cn1 [Example 44, 4-chloro-3-(5,7-difluoro-6-(1-methyl-1H-pyrazol-4-yl)-4-oxo-1,4-dihydroquinolin-2-yl)benzonitrile] | 75 | 100 to 1000 | 100 to 1000 |
| N#Cc1ccc(Cl)c(-c2cc(=O)c3c(F)c(C4COC4)c(F)cc3[nH]2)c1 [Example 45, 4-chloro-3-(5,7-difluoro-6-(oxetan-3-yl)-4-oxo-1,4-dihydroquinolin-2-yl)benzonitrile] | 66 | 100 to 1000 | 100 to 1000 |
| Cc1ccc(-c2c(F)cc3[nH]c(-c4cc(C#N)ccc4Cl)cc(=O)c3c2F)cn1 [Example 46, 4-chloro-3-(5,7-difluoro-6-(6-methylpyridin-3-yl)-4-oxo-1,4-dihydroquinolin-2-yl)benzonitrile] | 80 | 100 to 1000 | 100 to 1000 |
| Cn1ccc(-c2c(F)cc3[nH]c(-c4cc(C#N)ccc4Cl)cc(=O)c3c2F)n1 [Example 47, 4-chloro-3-(5,7-difluoro-6-(1-methyl-1H-pyrazol-3-yl)-4-oxo-1,4-dihydroquinolin-2-yl)benzonitrile] | 66 | 100 to 1000 | 100 to 1000 |
| CC(C)(O)Cn1cc(-c2c(F)cc3[nH]c(-c4cc(C#N)ccc4Cl)cc(=O)c3c2F)cn1 [Example 48, 4-chloro-3-(5,7-difluoro-6-(1-(2-hydroxy-2-methylpropyl)-1H-pyrazol-4-yl)-4-oxo-1,4-dihydroquinolin-2-yl)benzonitrile] | 47 | 1000 to 10000 | 1000 to 10000 |
| N#Cc1ccc(Cl)c(-c2cc(=O)c3c(F)c(-c4ccncc4F)c(F)cc3[nH]2)c1 [Example 49, 4-chloro-3-(5,7-difluoro-6-(3-fluoropyridin-4-yl)-4-oxo-1,4-dihydroquinolin-2-yl)benzonitrile] | 52 | 100 to 1000 | 100 to 1000 |
